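Five compound concentrations were applied to cells in 96-well plates for 48 hours; endpoints were derived by simple linear interpolation of the resulting dose-response curve. GI50: concentration for 50% inhibition of growth. Definition used: TGI = concentration required for complete inhibition of growth.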

What all share (test): NCI anticancer screen, dose series, 48 h
Assay [1] relates to SNB-19 CNS.
Assay [2] concerns CCRF-CEM leukemia.
For assay [3], the system named is SF-268 CNS.
The subject of assay [4] is SK-OV-3 ovarian.
For assay [5], the system named is SK-MEL-2 melanoma.
The subject of assay [6] is EKVX NSCLC.
The test system of assay [7] is UO-31 renal.
In assay [8] the test system is MDA-MB-435.
For assay [9], the system named is NCI-H460 lung.
The test system of assay [10] is SR leukemia.
Assay [11] has as its system HCC-2998 colon.

Consider `CC(C)Oc1c(C2(c3ccccc3)SCCCS2)c(=O)c1=O`, for which the TGI in [1], in assay [2], in assay [3], in assay [4], in [5] and in [6] was greater than 100 µM in each case. Further, the TGI in [7], in assay [8] and in assay [9] was greater than 100 µM throughout.
For `O=Cc1c[nH]c2c(=O)[nH]cnc12`, the TGI in assay [1], in [2], in assay [3], in [4], in assay [10] and in assay [5] was greater than 100 µM in each case. Also, the TGI in assay [6], in [11] and in [7] was greater than 100 µM in each case.
Turning to `CCS(=O)C(=O)N(O)c1ccc(Cl)cc1` (centres undefined), the TGI was greater than 100 µM in assay [1]; 63.2 µM in assay [2]; 55.4 µM in assay [3]; greater than 100 µM in assay [4]; 56.7 µM in assay [5]; greater than 100 µM in assay [6]. Also, the results for the TGI in [11], in [7] and in assay [8] were greater than 100 µM, 46.7 µM and 30 µM, respectively.
Regarding `Nc1nc2c(N)cc(C(F)(F)F)cc2nc1-c1ccccc1`, the TGI in assay [1], in [2], in [3], in assay [4], in assay [10] and in [5] was greater than 100 µM each time. Also, the TGI in assay [6], in assay [11], in assay [7] and in assay [9] was greater than 100 µM in each case.
In the case of `CCOC(=O)c1c2ccc(/C=C/c3ccccn3)ccc-2c(C(=O)OCC)c1N`, the TGI in assay [1] is greater than 100 µM; in assay [2], greater than 100 µM; in [3], 0.966 µM; in [4], greater than 100 µM; in assay [5] it was greater than 100 µM; in assay [6] it was greater than 100 µM. For the same compound, the TGI in assay [11], in assay [7] and in assay [9] was greater than 100 µM in each case.
On to `COC(=O)C1CC2C=CC=CC(=O)C2(C)C1` (centres undefined), for which the TGI in [1] was greater than 100 µM; in assay [2], 71.8 µM; in assay [3] it was greater than 100 µM; in [4] it was greater than 100 µM; in assay [10] it was 76.5 µM; in assay [5], greater than 100 µM. In addition, the TGI in [6], in assay [7] and in [9] was greater than 100 µM throughout.
With `COc1ccc(N2C(=O)c3c(c4[nH]c5ccccc5c4c4ccc(C(C)(C)C)cc34)C2=O)cc1`, the TGI was greater than 100 µM in assay [1]; 42.1 µM in [2]; 74.4 µM in [3]; greater than 100 µM in assay [4]; 57.2 µM in assay [10]; 71.8 µM in [5]. The TGI in assay [6], in assay [11], in [7] and in [9] was greater than 100 µM in each case.
As for `CC1=C(c2nc3ccccc3s2)C(=O)OC1(C)C`, the TGI in assay [1], in assay [2], in assay [3], in [4], in assay [10] and in [5] was greater than 100 µM throughout. Further, the TGI in [6], in assay [11], in [7] and in assay [9] was greater than 100 µM in each case.
Take `Cc1c(O)c(=O)ccn1CCN`: the TGI in assay [1], in assay [2], in assay [3], in [4], in [5] and in assay [6] was greater than 100 µM each time. Moreover, the TGI in [11], in assay [7] and in assay [9] was greater than 100 µM each time.
As for `CCOC1=C2N=C(C(CC)c3ccccc3F)N=C2C(=O)c2ccccc21` (centres undefined), the TGI in assay [1], in [2], in [3], in [10], in [5] and in [6] was greater than 100 µM throughout. Also, the TGI in assay [11], in assay [7] and in [9] was greater than 100 µM each time.
On to `CCOC(=O)N/N=C(/N)c1cccc(Br)c1`, for which the TGI in assay [1], in assay [2], in assay [3], in [4], in assay [10] and in assay [5] was greater than 100 µM in each case. Moreover, the TGI in assay [6], in assay [11], in [7] and in [9] was greater than 100 µM each time.
Consider `CC1(C)OC(=O)C(C)(C)C(=O)O1`, for which the TGI in [1], in assay [2], in assay [3], in assay [4], in assay [10] and in assay [5] was greater than 100 µM each time. Moreover, the TGI in [6], in assay [11], in assay [7] and in assay [9] was greater than 100 µM in each case.
Take `O=C1[C@@H]2C(c3ccc(Br)cc3)=NO[C@@H]2C(=O)N1c1ccc(Cc2ccc(N3C(=O)[C@H]4C(c5ccc(Br)cc5)=NO[C@H]4C3=O)cc2)cc1`: the TGI was greater than 3.48 µM in [1]; greater than 40 µM in [2]; greater than 3.48 µM in assay [3]; greater than 3.48 µM in assay [4]; greater than 40 µM in assay [10]; greater than 40 µM in assay [5]. For the same compound, the TGI in assay [6] was greater than 3.48 µM; in assay [11], greater than 3.48 µM; in assay [7], greater than 40 µM; in assay [9] it was greater than 40 µM. Further, the GI50 in [2], in [5], in assay [7] and in [9] was greater than 40 µM in each case.
Turning to `N#CC(NNC(=O)Cc1ccccc1)c1cccc(O)c1` (centres undefined), the TGI in assay [2], in assay [3], in [4], in assay [10], in [5] and in [7] was greater than 100 µM throughout. In addition, in assay [9], the TGI was greater than 100 µM.

(Values after PubChem BioAssay (NCI).)
